Laboratory results taken from patent US20020115661A1, “Method for treating chronic obstructive pulmonary disease” (priority 2000, published 2002).
Read-outs that look alike come from different tables or passages of the source.

Columns and labels:
human ETB receptors = target: T1, human ETB receptors (Homo sapiens, UniProt P24530); experiment: [125I]ET-3 binding to recombinant human ETB receptors (CHO cell membranes); conditions: [125I]ET-3; CHO cell membranes with cloned human ETB receptors; read-out: ETB, IC50
T1 construct: expressed in transfected cells; host or cells: CHO cells
T1 sequence (P24530 27-442): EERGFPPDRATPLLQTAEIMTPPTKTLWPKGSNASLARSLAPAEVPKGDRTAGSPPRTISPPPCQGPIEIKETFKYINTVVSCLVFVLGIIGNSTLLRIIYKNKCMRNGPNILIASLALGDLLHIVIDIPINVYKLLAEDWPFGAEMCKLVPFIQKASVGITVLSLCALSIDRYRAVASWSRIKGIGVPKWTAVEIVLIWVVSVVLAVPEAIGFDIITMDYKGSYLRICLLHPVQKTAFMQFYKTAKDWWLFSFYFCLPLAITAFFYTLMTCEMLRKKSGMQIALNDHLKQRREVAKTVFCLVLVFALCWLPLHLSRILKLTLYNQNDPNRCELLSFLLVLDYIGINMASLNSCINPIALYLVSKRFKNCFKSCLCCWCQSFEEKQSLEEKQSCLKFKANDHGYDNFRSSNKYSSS

rat ETB receptors = target: T2, rat ETB receptors (Rattus norvegicus, UniProt P21451); experiment: [125I]ET-3 binding, membranes from rat cerebellum
T2 construct: from tissue
T2 sequence (P21451 27-442): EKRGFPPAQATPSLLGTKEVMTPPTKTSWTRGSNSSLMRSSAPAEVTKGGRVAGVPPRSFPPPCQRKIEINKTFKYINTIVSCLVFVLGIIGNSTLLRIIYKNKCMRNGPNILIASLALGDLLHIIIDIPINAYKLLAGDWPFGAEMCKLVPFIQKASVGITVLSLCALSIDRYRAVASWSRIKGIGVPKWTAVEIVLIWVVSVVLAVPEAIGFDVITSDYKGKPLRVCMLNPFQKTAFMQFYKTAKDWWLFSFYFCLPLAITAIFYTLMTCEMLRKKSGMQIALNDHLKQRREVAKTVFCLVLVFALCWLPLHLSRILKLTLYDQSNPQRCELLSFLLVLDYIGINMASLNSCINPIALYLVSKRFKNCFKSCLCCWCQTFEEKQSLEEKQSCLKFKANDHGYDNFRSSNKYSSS
From the text: (§1) Relative binding activities are given below in TABLE 3.

dog ETB receptors = target: T3, dog ETB receptors (Canis lupus familiaris, UniProt P56497); experiment: [125I]ET-3 binding, membranes from dog cerebellum
T3 construct: from tissue
T3 sequence (P56497 27-442): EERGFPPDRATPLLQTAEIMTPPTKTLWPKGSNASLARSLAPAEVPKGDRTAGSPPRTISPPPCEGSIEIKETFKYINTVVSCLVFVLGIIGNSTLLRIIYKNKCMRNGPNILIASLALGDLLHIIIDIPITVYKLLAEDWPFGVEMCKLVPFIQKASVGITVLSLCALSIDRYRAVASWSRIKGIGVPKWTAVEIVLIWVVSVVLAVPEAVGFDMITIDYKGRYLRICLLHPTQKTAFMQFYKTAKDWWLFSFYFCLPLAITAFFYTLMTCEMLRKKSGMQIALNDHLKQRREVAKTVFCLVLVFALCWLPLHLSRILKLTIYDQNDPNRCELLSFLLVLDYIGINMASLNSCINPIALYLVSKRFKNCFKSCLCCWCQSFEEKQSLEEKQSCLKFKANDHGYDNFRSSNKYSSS
From the text: as §1

[1] = system: bET-1 pressor response (ETA receptors); experiment: Blockade of bET-1 induced pressor responses in rats; type: in vivo, rat
From the text: (§2) Vehicle-treated rats responded to the bET-1 challenge with peak increases in mean arterial pressure (MAP) of 58±2 mm Hg (N=7); baseline MAP was 82±5 mm Hg.

[2] = CI-1034 plasma concentration after oral dose in rats; type: in vivo; conditions: rat, 24 hours after 30 mg/kg oral dose
From the text: as §2

[3] = system: acute hypoxia-induced pulmonary hypertension; experiment: Pulmonary hypertension in response to acute hypoxia in rats; type: in vivo, rat
Method: Exposure to hypoxia produces an acute pulmonary hypertensive response in the rat. […] The hypothesis has since been tested through blockade of the hypertensive response with several ET antagonists. The antihypertensive dose of CI-1034 was determined in response to acute hypoxia.
Heparinized plasma samples were collected 10 minutes after the final MPAP measurement was made.

Solubility = type: physicochemical
Method: The compound acts as a base, raising the pH of the water to a measured value of 8.9 for a 100 mg/mL solution.
CI-1034 is insoluble in hexane and isopropanol.

Pharmacokinetics in dogs = type: in vivo; conditions: dog
[4] = Distribution, plasma protein binding and excretion; type: in vivo
[5] = Oral rising single-dose pharmacokinetic study in healthy subjects; type: in vivo, human
[6] = Food effect (high-fat meal) single-dose study in healthy subjects; type: in vivo, human; conditions: for Tmax: human, plasma, oral, 150 mg
healthy subjects = experiment: Tolerance and safety in Phase 1 studies in healthy subjects; type: in vivo, human

**Q.** With `CCc1cc(C2=C(C(=O)[O-])N(c3ccccc3C(F)(F)F)S(=O)(=O)c3ccccc32)cc2c1OCO2.[K+]` [CI-1034, 4-(7-Ethyl-1,3-benzodioxol-5-yl)-2-[2-(trifluoromethyl)phenyl]-2H-1 ,2-benzothiazine-3-carboxylic acid 1,1-dioxide monopotassium salt] as the molecule, how does the IC50 (human ETB receptors) read?
**A.** The IC50 was 1600 nM.

**Q.** What about the IC50 (rat ETB receptors) of the same molecule?
**A.** The IC50 was 230 nM.

**Q.** And the IC50 (dog ETB receptors)?
**A.** The IC50 was 329 nM.

**Q.** And the “peak pressor response to bET-1 challenge (MAP increase)” value ([1]; 30 mg/kg oral gavage 24 hours before bET-1 1 nmol/kg IV)?
**A.** Its value is 35±7 mm Hg.

**Q.** What about the “inhibition of the bET-1 pressor response compared to vehicle” value ([1]; 30 mg/kg oral gavage 24 hours before challenge, p<0.05) of the same molecule?
**A.** The value was 39%.

**Q.** And the concentration at 24 h [2]?
**A.** The concentration at 24 h was 160 ± 10 ng/mL.

**Q.** And the ED50 ([3]; Rattus norvegicus, rats, PO, relative to hypoxic control, read-out: ED50, inhibition of acute pulmonary hypertensive response)?
**A.** Its ED50 is 0.8 mg/kg.

**Q.** What about the EC50 ([3]; Rattus norvegicus, simple Emax model, acute hypoxia, read-out: plasma concentration predicted to produce half-maximal effect) of the same molecule?
**A.** The EC50 was 0.03 ± 0.03 µg/mL.

**Q.** And the “reduction of peak pulmonary hypertensive response at 4 hours” value ([3]; rats, 0.3 mg/kg PO 30 minutes before hypoxia (10% O2))?
**A.** Its value is 34%±1%.

**Q.** And the “reduction of peak pulmonary hypertensive response at 4 hours” value ([3]; rats, 3.0 mg/kg PO 30 minutes before hypoxia (10% O2))?
**A.** Its value is 70%±3%.

**Q.** And the “predicted maximal antihypertensive effect” value ([3]; simple Emax model, acute hypoxia)?
**A.** Its value is 81%±23%.

**Q.** What about the solubility (Solubility; 0.05 M pH 4 acetate buffer) of the same molecule?
**A.** Its solubility is “very slightly soluble”.

**Q.** And the solubility (Solubility; 0.05 M pH 7.4 potassium phosphate buffer)?
**A.** The solubility was “very slightly soluble”.

**Q.** What about the solubility (Solubility; 0.1N HCl) of the same molecule?
**A.** The solubility was “insoluble”.

**Q.** And the “pH of aqueous solution” value (Solubility; 100 mg/mL solution in water)?
**A.** The value was 8.9.

**Q.** What about the “concentration after 24 hours” value (Solubility; 0.5 M pH 7.4 potassium phosphate buffer, after 24 hours) of the same molecule?
**A.** The value was “approximately 0.8 mg/mL”.

**Q.** What about the “concentration reached on rapid dissolution” value (Solubility; 0.5 M pH 7.4 potassium phosphate buffer, initial) of the same molecule?
**A.** Its value is “approximately 13 mg/mL”.

**Q.** And the solubility (Solubility; acetonitrile)?
**A.** The solubility was “slightly soluble”.

**Q.** What about the solubility (Solubility; chloroform) of the same molecule?
**A.** The solubility was “very slightly soluble”.

**Q.** What about the solubility (Solubility; dichloromethane) of the same molecule?
**A.** The solubility was “very slightly soluble”.

**Q.** What about the solubility (Solubility; dimethylsulfoxide) of the same molecule?
**A.** Its solubility is “freely soluble”.

**Q.** What about the solubility (Solubility; ethanol) of the same molecule?
**A.** The solubility was “sparingly soluble”.

**Q.** And the solubility (Solubility; hexane)?
**A.** Its solubility is “insoluble”.

**Q.** What about the solubility (Solubility; isopropanol) of the same molecule?
**A.** The solubility was “insoluble”.

**Q.** And the solubility (Solubility; methanol)?
**A.** Its solubility is “freely soluble”.

**Q.** And the solubility (Solubility; tetrahydrofuran)?
**A.** Its solubility is “slightly soluble”.

**Q.** And the solubility (Solubility; water)?
**A.** Its solubility is “freely soluble”.

**Q.** And the bioavailability (Pharmacokinetics in dogs; in vivo, po, dogs)?
**A.** Its bioavailability is about 100%.

**Q.** What about the “increase of plasma concentrations with dose” value (Pharmacokinetics in dogs; up to 100 mg/kg) of the same molecule?
**A.** The value was “approximately proportional to dose”.

**Q.** And the “tissue distribution of radioequivalents” value ([4]; highest concentrations in liver and blood)?
**A.** Its value is “not widely distributed”.

**Q.** What about the plasma protein binding ([4]; in vivo) of the same molecule?
**A.** Its plasma protein binding is “highly bound”.

**Q.** What about the “Renal excretion of unchanged CI-1034” value ([5]; Study 1034-001) of the same molecule?
**A.** Its value is < 3 % of the dose.

**Q.** What about the half-life ([5]; human, plasma, oral, 400-mg dose, read-out: additional elimination half-life (converted)) of the same molecule?
**A.** The half-life was about 13 h.

**Q.** What about the half-life ([5]; human, plasma, single oral doses, Study 1034-001, read-out: elimination half-life (t½)) of the same molecule?
**A.** Its half-life is 2 to 4 h.

**Q.** And the Tmax ([5]; human, plasma, single oral doses, Study 1034-001, read-out: time to maximal plasma concentrations (tmax))?
**A.** Its Tmax is 1 to 3 h.

**Q.** What about the “Cmax and AUC(0-∞) with increasing dose” value ([5]; single oral doses) of the same molecule?
**A.** The value was “slightly more than proportional increases”.

**Q.** And the Tmax ([6]; fasted state)?
**A.** The Tmax was 1.26 h.

**Q.** What about the Tmax ([6]; with high-fat meal) of the same molecule?
**A.** Its Tmax is 3.5 h.

**Q.** What about the “mean AUC(0-∞) lower with high-fat breakfast versus fasted” value ([6]; single dose) of the same molecule?
**A.** Its value is “approximately 16%”.

**Q.** And the “mean Cmax lower with high-fat breakfast versus fasted” value ([6]; single dose)?
**A.** Its value is “approximately 50%”.

**Q.** And the QTc intervals (healthy subjects)?
**A.** Its QTc intervals is “No prolonged QTc intervals”.

**Q.** What about the “most frequent adverse events” value (healthy subjects) of the same molecule?
**A.** Its value is “headache, somnolence, nausea, and dyspepsia”.

**Q.** And the serious adverse events (healthy subjects)?
**A.** Its serious adverse events is “no treatment-related serious adverse events”.

**Q.** And the “changes in C-reactive protein” value (healthy subjects; Study 1034-001)?
**A.** Its value is “no significant changes”.

**Q.** And the tolerance (healthy subjects; single 400 mg dose with single 2-mg dose of midazolam syrup, Study 1034-005)?
**A.** The tolerance was “well-tolerated”.

**Q.** What about the tolerance (healthy subjects; single 150-mg doses with or without a high-fat breakfast, Study 1034-004) of the same molecule?
**A.** Its tolerance is “well-tolerated”.

**Q.** What about the tolerance (healthy subjects; single doses up to 400 mg, Study 1034-001) of the same molecule?
**A.** Its tolerance is “well-tolerated”.

**Q.** What about the laboratory abnormalities (healthy subjects; sporadic and transient) of the same molecule?
**A.** Its laboratory abnormalities is “unrelated to CI-1034 administration”.

**Q.** And the “intensity of adverse reactions” value (healthy subjects; transient)?
**A.** The value was “mild or moderate”.
